From patent US4939133A, “N-substituted-2-hydroxy-α-oxo-benzeneacetamides and pharmaceutical compositions having activity as modulators of the arachidonic acid cascade” (Warner-Lambert Company, priority 1985, dated 1990)

Target: T1, 5-lipoxygenase (isolated human leukocytes) (Homo sapiens, UniProt P09917)
T1 construct: 5-Lipoxygenase Assay Using Isolated Human Leukocytes (5LOA2); endogenous in cells; host or cells: isolated human blood leukocytes, platelets removed
T1 sequence (P09917 1-674): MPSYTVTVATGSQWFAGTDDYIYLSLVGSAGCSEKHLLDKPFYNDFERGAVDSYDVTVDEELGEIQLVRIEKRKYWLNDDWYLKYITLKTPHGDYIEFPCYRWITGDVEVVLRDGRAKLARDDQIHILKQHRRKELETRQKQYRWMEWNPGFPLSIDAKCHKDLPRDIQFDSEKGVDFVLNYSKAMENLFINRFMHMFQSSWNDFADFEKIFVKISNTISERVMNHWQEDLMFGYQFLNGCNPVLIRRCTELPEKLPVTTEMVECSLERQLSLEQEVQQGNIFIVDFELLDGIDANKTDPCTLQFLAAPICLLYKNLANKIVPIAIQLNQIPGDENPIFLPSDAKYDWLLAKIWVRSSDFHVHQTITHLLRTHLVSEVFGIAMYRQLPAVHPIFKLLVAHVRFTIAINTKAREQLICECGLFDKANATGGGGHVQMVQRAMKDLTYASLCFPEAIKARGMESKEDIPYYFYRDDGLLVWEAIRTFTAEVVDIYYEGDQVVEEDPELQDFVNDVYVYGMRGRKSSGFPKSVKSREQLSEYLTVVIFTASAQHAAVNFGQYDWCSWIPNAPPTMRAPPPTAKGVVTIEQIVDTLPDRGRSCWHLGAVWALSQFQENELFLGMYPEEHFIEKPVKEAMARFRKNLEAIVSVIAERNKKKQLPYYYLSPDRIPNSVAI
Assay: 5-Lipoxygenase Assay Using Isolated Human Leukocytes (5LOA2)
Format: cell-based
Protocol: 5-Lipoxygenase Assay Using Isolated Human Leukocytes (5LOA2)
The formation of 5-HETE in human leukocytes is considered a measure of 5-lipoxygenase activity. The protocol is described in the following.
Fresh heparinized or EDTA treated human blood is mixed with 6% dextran-3% dextrose in isotonic saline in the ratio 0.25 ml dextran solution per 1.0 ml blood. After mixing the blood is allowed to sit at room temperature for about 90 minutes while the RBC's settle. During this period, the plasma is removed with a plastic pipette to nalgens tubes.
The plasma is centrifuged at 800 rpm ([…]) on the Beckman Td-b refrigerated centrifuge to remove the platelets (which remain in the supernatant). The pellet, consisting of leukocytes and erythrocytes, is treated with 10 ml 0.87% ammonium chloride at room temperature for four minutes, lysing the red cells. At the end of four minutes the cells are diluted with a 2×volume of phosphate buffered saline, pH 7.4, and centrifuged for ten minutes. The cells are washed three times with the phosphate buffered saline. Any of the pelleted cell matter which is not easily resuspended is discarded during the washings --the material contains platelets (12-lipoxygenase activity).
After washing, the cells are resuspended in phosphate buffered saline containing 1.0 mM calcium and 0.5 mM magnesium. After counting the cells are diluted to 1.5-2.0×10^7 leukocytes per milliliter.
To each polypropylene reaction tube is added 0.48 ml leukocytes in Ca-Mg phosphate buffered saline, pH 7.4; 1-5 μl test compound dissolved in DMSO and buffer; or DMSO for control tubes.
The tubes preincubate at 37° C. for five minutes. […]
A portion of the ethanol solution is injected into the HPLC system for 5-HETE quantitation.
The HPLC system consists of Hewlett-Packard 1040A UV spectrophotometry system with an HP85 computer. […] Peaks are measured with a Hewlett Packard 3360A integrator. […] The flow is monitored at 235 nm for 5-HETE quatitation. […]

% Inhibition (5LOA2) (5LOA2, 2.00 E -5 M): 30.9%
% Inhibition (5LOA2) (5LOA2, 5.00 E -6 M): 21.1%
SMILES: O=C(Nc1ccc(CCc2ccc(Cl)c(Cl)c2)cc1)c1ccccc1O [Example 42]
